The values that follow come from PubChem BioAssay (NCI).

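All cell lines were grown in 96-well plates and treated with compound for 48 hours. GI50 = concentration required for 50% inhibition of growth. TGI denotes the concentration required for complete inhibition of growth.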

Some test systems named below: BT-549 breast; CAKI-1 renal; HT29 colon; IGROV1 ovarian; K-562 leukemia; KM12 colon; M14 melanoma; MALME-3M melanoma; MDA-MB-435; NCI-H226 lung; NCI-H23 lung; NCI/ADR-RES ovarian; OVCAR-3 ovarian; PC-3 prostate; SF-295 CNS; SK-MEL-5 melanoma; SN12C renal; T-47D breast.
Experiment in all cases: NCI-60 cell line screen, 48 h

`Cc1nn(C(=O)c2ccc(Cl)cc2)c2c1C(c1ccccc1O)SC(N)=N2` (stereo not drawn): the TGI with BT-549 breast, in the assay with CAKI-1 renal, in the assay on HT29 colon, in the assay on IGROV1 ovarian, in the assay with K-562 leukemia and in the assay on KM12 colon was more than 10 µM in each case. The TGI in the assay with M14 melanoma, in the assay with MALME-3M melanoma, in the assay on MDA-MB-435, with NCI-H226 lung, in the assay with NCI-H23 lung and in the assay on NCI/ADR-RES ovarian was more than 10 µM throughout. Moreover, the TGI in the assay on OVCAR-3 ovarian, with PC-3 prostate, in the assay with SF-295 CNS, with SK-MEL-5 melanoma, in the assay on SN12C renal and with T-47D breast was more than 10 µM throughout.
Turning to `Clc1cc2nc(C3CCCCO3)[nH]c2cc1Cl` (stereo not drawn), the TGI in the assay with BT-549 breast was 68.1 µM; with CAKI-1 renal, more than 100 µM; in the assay with HT29 colon, 25.8 µM; in the assay on IGROV1 ovarian, more than 100 µM; in the assay with K-562 leukemia, more than 100 µM; with KM12 colon it was more than 56.9 µM. Further, the TGI in the assay with M14 melanoma was more than 100 µM; in the assay on MALME-3M melanoma it was more than 100 µM; in the assay on MDA-MB-435, more than 44.6 µM; with NCI-H226 lung, more than 100 µM; with NCI-H23 lung, more than 59.8 µM; in the assay with NCI/ADR-RES ovarian, more than 52.1 µM. In addition, the TGI in the assay with OVCAR-3 ovarian was 23.9 µM; in the assay on PC-3 prostate, more than 100 µM; in the assay with SF-295 CNS, more than 100 µM; in the assay on SK-MEL-5 melanoma, more than 100 µM; in the assay on SN12C renal it was more than 100 µM; with T-47D breast, more than 93.9 µM.
With `COC(O)C(=O)c1c2c(cc3c1CCC3)CCC2` (stereo not drawn), the TGI with BT-549 breast, with CAKI-1 renal, in the assay on HT29 colon, in the assay on IGROV1 ovarian, with K-562 leukemia and with KM12 colon was more than 100 µM in each case. Also, the TGI in the assay with M14 melanoma, in the assay on MALME-3M melanoma, in the assay with MDA-MB-435, in the assay with NCI-H226 lung, in the assay on NCI-H23 lung and with NCI/ADR-RES ovarian was more than 100 µM in each case. In addition, the TGI in the assay with OVCAR-3 ovarian, in the assay with PC-3 prostate, in the assay on SF-295 CNS, with SK-MEL-5 melanoma, with SN12C renal and with T-47D breast was more than 100 µM each time.
With `C[C@@H](Oc1ccc(Oc2cnc3ccc(Cl)cc3n2)cc1)C(=O)O`, the TGI in the assay with BT-549 breast, with CAKI-1 renal, in the assay with HT29 colon, in the assay with IGROV1 ovarian, with K-562 leukemia and in the assay with KM12 colon was more than 100 µM in each case. For the same compound, the TGI in the assay on M14 melanoma, with MALME-3M melanoma, with MDA-MB-435, with NCI-H226 lung, in the assay with NCI-H23 lung and with NCI/ADR-RES ovarian was more than 100 µM throughout. Further, the TGI in the assay on OVCAR-3 ovarian, in the assay on PC-3 prostate, with SF-295 CNS, in the assay with SK-MEL-5 melanoma, in the assay on SN12C renal and in the assay on T-47D breast was more than 100 µM throughout. For the same compound, the GI50 with NCI-H226 lung is 67.1 µM; in the assay on SK-MEL-5 melanoma it was more than 82.1 µM.
Consider `Brc1c2c(c(Br)c3nsnc13)N=S=N2`, for which the TGI was 26.9 µM with BT-549 breast; 40.4 µM with CAKI-1 renal; more than 60.4 µM with HT29 colon; more than 60.7 µM in the assay on IGROV1 ovarian; 33.3 µM in the assay on K-562 leukemia; more than 100 µM in the assay with KM12 colon. For the same compound, the TGI is 50.5 µM in the assay with M14 melanoma; more than 72.6 µM with MALME-3M melanoma; more than 74.4 µM in the assay with MDA-MB-435; more than 76.6 µM in the assay on NCI-H226 lung; more than 69.1 µM in the assay with NCI-H23 lung; 79.8 µM in the assay with NCI/ADR-RES ovarian. Besides, the TGI with OVCAR-3 ovarian was 68.6 µM; in the assay with PC-3 prostate it was more than 100 µM; with SF-295 CNS, more than 70.8 µM; in the assay with SK-MEL-5 melanoma, 42.5 µM; in the assay with SN12C renal, 32.8 µM; in the assay with T-47D breast, more than 66.6 µM.
Turning to `Cc1occc1C(=S)Nc1ccc(Cl)c(C(=O)OCC(C)C)c1`, the TGI worked out at 33.2 µM in the assay with BT-549 breast; 37.8 µM in the assay on CAKI-1 renal; 26.3 µM in the assay on HT29 colon; 34.5 µM with IGROV1 ovarian; 55.2 µM in the assay with K-562 leukemia; 27.5 µM in the assay with KM12 colon. Moreover, the TGI in the assay with M14 melanoma stood at 65 µM; with MALME-3M melanoma it was 36.2 µM; in the assay with MDA-MB-435 it was 32.8 µM; in the assay with NCI-H226 lung, 30.4 µM; in the assay on NCI-H23 lung, 45.3 µM; with NCI/ADR-RES ovarian it was 28.6 µM. The TGI came out at 46.5 µM in the assay with OVCAR-3 ovarian; 38.7 µM in the assay on PC-3 prostate; 33.2 µM with SF-295 CNS; 29 µM in the assay on SK-MEL-5 melanoma; 36.3 µM in the assay with SN12C renal; 34.3 µM in the assay on T-47D breast.
Consider `Cc1cccc2c(N)c3cccc(C(=O)NCC[N+](C)(C)Cc4ccc(S(C)(=O)=O)cc4)c3nc12`, for which the TGI in the assay on BT-549 breast is more than 100 µM; with CAKI-1 renal, more than 100 µM; in the assay with HT29 colon, more than 100 µM; with IGROV1 ovarian it was more than 100 µM; with K-562 leukemia, more than 52.2 µM; in the assay with KM12 colon, more than 100 µM. In addition, the TGI in the assay with M14 melanoma, in the assay with MALME-3M melanoma, with MDA-MB-435, in the assay with NCI-H226 lung, in the assay on NCI-H23 lung and with NCI/ADR-RES ovarian was more than 100 µM each time. Besides, the TGI with OVCAR-3 ovarian, in the assay on PC-3 prostate, in the assay on SF-295 CNS, in the assay on SK-MEL-5 melanoma, in the assay with SN12C renal and with T-47D breast was more than 100 µM in each case.
For `COc1ccc(C2CC(c3ccc(NS(=O)(=O)c4cc([N+](=O)[O-])ccc4C)cc3)=NN2S(=O)(=O)c2cc([N+](=O)[O-])ccc2C)cc1` (stereo not drawn), the TGI with BT-549 breast, with CAKI-1 renal, in the assay with HT29 colon, in the assay with IGROV1 ovarian, with K-562 leukemia and in the assay with KM12 colon was more than 100 µM each time. The TGI with M14 melanoma was more than 100 µM; in the assay on MALME-3M melanoma it was more than 100 µM; in the assay with MDA-MB-435, more than 100 µM; with NCI-H226 lung it was more than 100 µM; in the assay on NCI-H23 lung, 78.7 µM; with NCI/ADR-RES ovarian it was more than 100 µM. The TGI in the assay with OVCAR-3 ovarian, in the assay with PC-3 prostate, with SF-295 CNS, in the assay on SK-MEL-5 melanoma, in the assay on SN12C renal and with T-47D breast was more than 100 µM in each case.
Consider `COc1ccc(OC)c(N=Cc2cc(OC)c(OC)c(OC)c2)c1`, for which the TGI in the assay with BT-549 breast, in the assay on CAKI-1 renal, with HT29 colon, in the assay on IGROV1 ovarian, with K-562 leukemia and with KM12 colon was more than 100 µM throughout. For the same compound, the TGI in the assay on M14 melanoma is more than 100 µM; in the assay on MALME-3M melanoma, more than 100 µM; in the assay on MDA-MB-435 it was more than 76.2 µM; in the assay on NCI-H226 lung, more than 100 µM; with NCI-H23 lung, more than 100 µM; with NCI/ADR-RES ovarian, more than 100 µM. For the same compound, the TGI with OVCAR-3 ovarian is more than 40.3 µM; in the assay with PC-3 prostate, more than 100 µM; with SF-295 CNS, more than 100 µM; in the assay on SK-MEL-5 melanoma, more than 100 µM; in the assay on SN12C renal, more than 100 µM; in the assay on T-47D breast, more than 100 µM.
For `O=C(NC(=O)c1ccccc1)OC(c1ccccc1)C1CO1` (stereo not drawn), the TGI in the assay on BT-549 breast, in the assay on CAKI-1 renal, with HT29 colon, in the assay with IGROV1 ovarian, in the assay with K-562 leukemia and in the assay on KM12 colon was more than 100 µM throughout. The TGI in the assay with M14 melanoma, in the assay with MALME-3M melanoma, in the assay with MDA-MB-435, with NCI-H226 lung, in the assay with NCI-H23 lung and with NCI/ADR-RES ovarian was more than 100 µM each time. In addition, the TGI with OVCAR-3 ovarian, in the assay on PC-3 prostate, in the assay on SF-295 CNS, in the assay on SK-MEL-5 melanoma, in the assay with SN12C renal and in the assay on T-47D breast was more than 100 µM in each case.
For `Cc1n[nH]c(=O)n1Nc1ccccc1`, the TGI in the assay with BT-549 breast, with CAKI-1 renal, in the assay on HT29 colon, with IGROV1 ovarian, in the assay on K-562 leukemia and in the assay on KM12 colon was more than 100 µM throughout. Further, the TGI in the assay on M14 melanoma, with MALME-3M melanoma, in the assay on MDA-MB-435, in the assay on NCI-H226 lung, in the assay with NCI-H23 lung and with NCI/ADR-RES ovarian was more than 100 µM throughout. Also, the TGI in the assay with OVCAR-3 ovarian, in the assay on PC-3 prostate, in the assay with SF-295 CNS, with SK-MEL-5 melanoma, in the assay on SN12C renal and with T-47D breast was more than 100 µM throughout.
On to `COc1cccc(C2c3cc4c(cc3OC(NNC(N)=O)C2C)OCO4)c1O` (stereo not drawn), for which the TGI is more than 100 µM in the assay on BT-549 breast; more than 77.9 µM with CAKI-1 renal; more than 23 µM in the assay with HT29 colon; more than 100 µM in the assay on IGROV1 ovarian; more than 100 µM in the assay on K-562 leukemia; more than 79.2 µM in the assay with KM12 colon. Moreover, the TGI with M14 melanoma was 23.6 µM; in the assay with MALME-3M melanoma, more than 67.7 µM; in the assay on MDA-MB-435, 0.523 µM; in the assay with NCI-H226 lung it was 9.4 µM; in the assay with NCI-H23 lung, more than 100 µM; with NCI/ADR-RES ovarian it was more than 100 µM. In addition, the TGI was 29.6 µM in the assay on OVCAR-3 ovarian; more than 100 µM in the assay with PC-3 prostate; 14 µM in the assay with SF-295 CNS; 8.54 µM in the assay with SK-MEL-5 melanoma; more than 100 µM in the assay on SN12C renal; more than 100 µM in the assay on T-47D breast.
